The values below are quoted from earlier work in patent US20190316065A1, “NATURALLY-DERIVED ANTIMICROBIAL CLEANING SOLUTIONS” (ProNatural Brands LLC, priority 2018, published 2019).

For this series the following is noted: standard pKa.

With `O=C(O)CC(O)(CC(=O)O)C(=O)O` [citric acid], the pKa1 is given as 3.1, the pKa2 is 4.8 and the pKa3 result is reported as “≈ 6.4”.
